Measured values: patent US5922891A, “2-substituted 1,8-dihydroxy-9(10H)-anthracenone pharmaceuticals” (priority 1997, dated 1999)

What was measured:
HaCaT cells = test: Antiproliferative activity against HaCaT cells (human keratinocyte cell line); type: cell-based; conditions: 48 h, read-out: AA IC50 (antiproliferative activity)
[1] = Inhibition of AAPH-induced lipid peroxidation in bovine brain phospholipid liposomes; type: biochemical; conditions: AAPH-induced; bovine brain phospholipid liposomes; N = 3 or more; read-out: LPO IC50 (inhibition of lipid peroxidation)
Protocol: Phospholipids were prepared essentially as described by Gutteridge, J. M. C., (Anal. Biochem., 82: 76-82 (1977)). Bovine brain tissue was cooled on ice, freed from blood vessels and washed repeatedly with 0.15 M NaCl, pH 7.4. The tissue was cut into pieces and then macerated with an ultra-turrax, passed through a fine-meshed sieve, and extracted four times with four times the volume of acetone. The extraction mixture was filtered by suction to remove the acetone, the residue dried under vacuum, and then repeatedly extracted with petroleum ether (40-60) using twice the volume of the original brain homogenate. The combined extracts were filtered, dried at 45° C., and dissolved in ether (one fifth the original brain volume). The mixture was treated with five times the volume of acetone, and the resulting precipitate was collected by suction-filtration, dried and stored under N2 at -20° C. in the dark. Bovine brain phospholipids were weighed into glass tubes and shaken in a vortex mixer (Heidolph) in the presence of five small glass beads (.phi. 4 mm) for 1 minute. The phospholipids were suspended in 0.15 M NaCl, pH 7.4, to a final concentration of 5 mg/ml. The mixture was purged with N2 for 1 minute and vigorously dispersed in a vortex mixer for 5 minutes. The liposomes were allowed to swell for 1 hour at 4° C., and vesicles with a mean size of 1-10 μm were obtained according to the method of Bangham, et al., (J. Mol. Biol., 13:238-252 (1965). The liposomes were stimulated with the azo initiator 2 2'-azobis (2-amidinopropane) hydrochloride according to the method of Gutteridge, J. M. C., (Anal. Biochem. 82:76-82 (1977)).
The following reagents were added to the glass tubes containing stimulating bovine brain phospholipid piposomes in the order and at the final concentrations listed: 0.3 ml HK2 PO4 --KOH buffer, pH 7.4 (30 mM), 0.29 ml double distilled H2 O, 0.2 ml liposomes (1 mg/ml), 0.2 ml FeCl3.H2 O (0.1 mM), 0.01 ml 2-substituted anthracenone compound of the invention (variable concentrations).
Appropriate blanks and controls using the vehicle (acetone) were conducted. The final reaction volumes were standardized to 1.0 ml. The reaction mixtures were incubated for 1 hour at 37° C. in a shaking water bath. […] of 20% (w/v) BHT, 0.5 ml 25% (w/v) HCl and 0.5 ml of 1% 2-thiobarbituric acid were added and the samples were heated at 100° C. for 15 minutes and then cooled in an ice bath (5 minutes). 2 ml of 1-butanol were added and the mixtures were vigorously shaken in a vortex mixer (Heidolph) for 15 seconds. The organic layer was separated by centrifugation at 3000 rpm (15 minutes) and absorbance at 532 nm was measured against butanol.

Structure (SMILES): COC(=O)CCCCc1ccc2c(c1O)C(=O)c1c(O)cccc1C2 [IVB, Methyl 5-(9,10-Dihydro-1,8-dihydroxy-9-oxo-2-anthracene)pentanoate]
- IC50 (HaCaT cells): 1.8 µM
- IC50 [1]: 62 µM

Structure (SMILES): COC(=O)CCCCCc1ccc2c(c1O)C(=O)c1c(O)cccc1C2 [VB, Methyl 6-(9,10-Dihydro-1,8-dihydroxy-9-oxo-2-anthracene) hexaonate]
- IC50 [1]: 120 µM

Structure (SMILES): CC(C(=O)N(C)O)c1ccc2c(c1O)C(=O)c1c(O)cccc1C2 (stereo not drawn) [VIID, N-Hydroxy-N-methyl-2-(9,10-dihydro-1,8-dihydroxy-9-oxo-2-anthracene)propionamide]
- IC50 (HaCaT cells): 1.5 µM
- IC50 [1]: 8 µM

Structure (SMILES): COC(=O)C(c1ccc2c(c1O)C(=O)c1c(O)cccc1C2)C(C)C (stereo not drawn) [VIIIB, Methyl 2-(9,10-Dihydro-1,8-dihydroxy-9-oxo-2-anthracene)-3-methylbutanoate]
- IC50 [1]: 165 µM
